In patent US20150011541A1, “PIPECOLATE-SULFONAMIDES FOR TREATMENT OF PSYCHIATRIC DISORDERS” (Max-Planck-Gesellschaft zur Förderung der Wissenschaften …, priority 2011, published 2015) one finds IC50 and inhibition data, which are given here for ten compounds.

Like-named read-outs stand apart in the source and are kept apart here.

For one assay, the target named is T1, human FKBP51FK1 (Homo sapiens, UniProt Q13451).
T1 sequence (Q13451 42-130 limits assumed): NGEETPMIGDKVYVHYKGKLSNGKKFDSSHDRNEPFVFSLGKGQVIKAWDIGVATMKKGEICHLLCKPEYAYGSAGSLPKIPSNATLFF
Kind of assay: Fluorescence polarization assay, binding to FK1 domain of FKBP51. The conditions noted are these: for IC50: binding affinity, fluorescence polarization assay; for inhibition at 5 µM: read-out: FKBP 51 FK1 % inhibition.

The next assay concerns the target T2, human FKBP52FK1 (Homo sapiens, UniProt Q02790).
T2 sequence (Q02790 50-138 limits assumed): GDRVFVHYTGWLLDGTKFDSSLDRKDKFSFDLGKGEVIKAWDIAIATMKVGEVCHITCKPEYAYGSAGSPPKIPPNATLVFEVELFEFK
Kind of assay: Fluorescence polarization assay, binding to FK1 domain of FKBP52. The conditions noted are these: for IC50: binding affinity, fluorescence polarization assay; for inhibition at 5 µM: read-out: FKBP52 FK1 % inhibition. Background: In fluorescence polarisation assays a small probe gives low polarisation when free and higher when bound to something large.

The mark [1] stands for this setting: at a concentration of 5 μM, library testing.

What is called IC50 is the point on the concentration scale where inhibition reaches its midpoint. A low value points to higher potency. Consider `O=C(OCCCc1cccnc1)C1CCCCN1S(=O)(=O)c1cccc([N+](=O)[O-])c1` (stereo not drawn) [Ref. 4, 3-(pyridin-3-yl)propyl 1-(3-nitrophenylsulfonyl)piperidine-2-carboxylate, reference compound], for which the IC50 at human FKBP51FK1 and at human FKBP52FK1 was above 100 µM each time.
For orientation: inhibition means the change of the read-out against control, counted positive when it falls. With `COc1ccc(CC[C@@H](OC(=O)[C@@H]2CCCCN2S(=O)(=O)c2cccs2)c2cccc(OCC(=O)O)c2)cc1OC` [Compound 55, 2-(3-((R)-3-(3,4-dimethoxyphenyl)-1-((S)-1-(thiophen-2-ylsulfonyl)piperidine-2-carbonyloxy)propyl)phenoxy)acetic acid], the inhibition at 5 µM on human FKBP51FK1 (setting [1]) was found to be 3.2%; on human FKBP52FK1 (setting [1]), 8.5%.
The corresponding values for `COc1ccc(CC[C@@H](OC(=O)[C@@H]2CCCCN2S(=O)(=O)c2ccc(Oc3ccccc3)nc2)c2cccc(OCC(=O)O)c2)cc1OC` [Compound 43, 2-(3-((R)-3-(3,4-dimethoxyphenyl)-1-((S)-1-(6-phenoxypyridin-3-ylsulfonyl)piperidine-2-carbonyloxy)propyl)phenoxy)acetic acid] are 3.7% and 11.4%.
Take `COc1ccc(CC[C@@H](OC(=O)[C@@H]2CCCCN2S(=O)(=O)c2cc(Cl)c(O)c(Cl)c2)c2cccc(OCCN3CCOCC3)c2)cc1OC` [Compound 33, (S)-((R)-3-(3,4-dimethoxyphenyl)-1-(3-(2-morpholinoethoxy)phenyl)propyl)1-(3,5-dichloro-4-hydroxyphenylsulfonyl)piperidine-2-carboxylate]: the IC50 worked out at 0.456 ± 0.05 µM at human FKBP51FK1 and 0.71 ± 0.1 µM at human FKBP52FK1.
Consider `COc1ccc(CC[C@@H](OC(=O)[C@@H]2CCCCN2S(=O)(=O)c2ccc(F)cc2)c2cccc(OCC(=O)O)c2)cc1OC` [Compound 38, 2-(3-((R)-3-(3,4-dimethoxyphenyl)-1-((S)-1-(4-fluorophenylsulfonyl)piperidine-2-carbonyloxy)propyl)phenoxy)acetic acid], for which the results for the inhibition at 5 µM on human FKBP51FK1 (setting [1]) and at human FKBP52FK1 (setting [1]) were 4.3% and 6.6%, respectively.
In the case of `COc1ccc(CC[C@@H](OC(=O)[C@@H]2CCCCN2S(=O)(=O)c2ccc(-c3ncccn3)cc2)c2cccc(OCC(=O)O)c2)cc1OC` [Compound 1, 2-(3-((R)-3-(3,4-dimethoxyphenyl)-1-((S)-1-(4-(pyrimidin-2-yl)phenylsulfonyl)piperidine-2-carbonyloxy)propyl)phenoxy)acetic acid], the inhibition at 5 µM at human FKBP51FK1 (setting [1]) is 16.3%; at human FKBP52FK1 (setting [1]), 15.2%. The half-maximal inhibitory concentration (IC50) on human FKBP51FK1 was 62.8 ± 10.7 µM.
In the case of `COc1ccc(CC[C@@H](OC(=O)[C@@H]2CCCCN2S(=O)(=O)c2ccc(Cl)cc2)c2cccc(OCC(=O)O)c2)cc1OC` [Compound 36, 2-(3-((R)-1-((S)-1-(4-chlorophenylsulfonyl)piperidine-2-carbonyloxy)-3-(3,4-dimethoxyphenyl)propyl)phenoxy)acetic acid], the inhibition at 5 µM at human FKBP51FK1 stood at 11.7%; at human FKBP52FK1, 15.2%.
Take `COc1ccc(S(=O)(=O)N2CCCC[C@H]2C(=O)O[C@H](CCc2ccc(OC)c(OC)c2)c2cccc(OCC(=O)O)c2)cc1Cl` [Compound 16, 2-(3-((R)-1-((S)-1-(3-chloro-4-methoxyphenylsulfonyl)piperidine-2-carbonyloxy)-3-(3,4-dimethoxyphenyl)propyl)phenoxy)aceticacid]: the results for the IC50 on human FKBP51FK1 and at human FKBP52FK1 were 18.8 ± 2.4 µM and 20.2 ± 3.5 µM, respectively.
The corresponding values for “2-(3-((R)-1-((S)-1-(3-cyanophenylsulfonyl)piperidine-2-carbonyloxy)-3-(3,4-dimethoxyphen-yl)propyl)phenoxy)acetic acid [Compound 6]” are 28.5 ± 9.6 µM and 69.9 ± 65.4 µM.
In the same order, the values of `COc1ccc(CC[C@@H](OC(=O)[C@@H]2CCCCN2S(=O)(=O)c2ccc3[nH]c(=O)sc3c2)c2cccc(OCC(=O)O)c2)cc1OC` [Compound 28, 2-(3-((R)-3-(3,4-dimethoxyphenyl)-1-((S)-1-(2-oxo-2,3-dihydrobenzo[d]thiazol-6-ylsulfonyl)piperidine-2-carbonyloxy)propyl)phenoxy)aceticacid] are 14.7 ± 1.1 µM and 66.5 ± 27.1 µM.
